Assays:
[1] = Scavenging test of DPPH free radical; assay type: biochemical; settings: for Scavenging efficiency (%): 200 μM DPPH, 30 minutes
Protocol: DPPH (1,1-diphenyl-2-picrylhydrazyl) was used as a source of free radicals to examine the scavenging efficiency of the caffeamide derivatives prepared in Example 1 on free radicals. […] The mixtures were placed in the dark at room temperature for 30 minutes and its absorbance at 517 nm was measured by an enzyme immunoassay analyzer. In this experiment, 50 volume % propanediol was used to replace extracts and to be a control group, ascorbic acid (vitamin C) was used as a positive control group, and methanol was used to replace DPPH as the background value. The scavenging efficiency of caffeamide derivatives on free radicals was examined by the formula blow, and the results are shown in Table 2, FIG. 1a, and FIG. 1b. Scavenging efficiency(%)=[the absorbance of the control group−the absorbance of the experimental group/the absorbance of the control group]×100%.

[2] = test system: Smad7; assay: Promotion test of the expression of collagen, western blot; assay type: cell-based, human; settings: UVB 40 mJ/cm^2
Protocol: (§1) It has been known that Smad3 protein can promote the expression level of procollagen-1, and Smad7 protein can inhibit the expression level of Smad3 protein. After cells were irradiated with UV rays, the expression levels of procollagen-1 and Smad3 protein will reduce and the expression level of Smad7 protein will increase. Therefore, in this experiment, the expression levels of intracellular procollagen-1 protein, Smad3 protein and Smad7 protein were analyzed by western blotting.
(§2) Specifically, when the concentration of the compound of formula (2) was 25 μM, the protein expression level of Smad7 was 1.1 times as compared to that of the untreated cells.

[3] = test system: Smad3; assay: as above; assay type: cell-based, human; settings: UVB 40 mJ/cm^2; result in words
Protocol: as §1, §2

[4] = test system: procollagen-1; assay: as above; assay type: cell-based, human; settings: 25 μM; UVB 40 mJ/cm^2
Protocol: as §1, §2

[5] = test system: c-Fos; assay: Inhibition test of AP-1 gene transcription factors, western blot; assay type: cell-based, human; settings: 5 μM; UVB 40 mJ/cm^2
From the text: (§3) When cells are irradiated by UV rays, JNK, p38 and c-Jun in the cells will translocated into the nucleus, and c-For will translocate into the nucleus under the regulation of ERK and p38. The two subunits of c-Jun and c-Fos will combine to form an AP-1 gene transcription factor to participate in gene expression process and increase the mRNA transcription level of MMP-1. On the other hand, the two subunits can also reduce the gene expression level of procollagen al of Type I collagen. Therefore, in this experiment, the expression of AP-1 in the nucleus was analyzed by western blotting.
(§4) However, after the cells were treated with the compound of formula (2) prepared in Example 1, the protein expression levels of c-Fos, p-c-Jun, and c-Jun induced by UVB were inhibited in a concentration dependent way. Specifically, when the concentration of the compound of formula (2) was 10 μM, the expression level of c-Fos was 1.1 as compared to that of the untreated cells.

[6] = test system: c-Jun; assay: as above; assay type: cell-based, human; settings: UVB 40 mJ/cm^2
From the text: as §3, §4

[7] = test system: p-p38; assay: Inhibition test of the phosphorylation of MAPK, western blot; assay type: cell-based, human; settings: UVB 40 mJ/cm^2
Protocol: (§5) It has been known that the skin photo-aging caused by UV rays will increase the content of MMPs in the dermis by the phosphorylation of MAPK. In this experiment, the effect of caffeamide derivative on the phosphorylation of MAPK in the cells was analyzed by western blotting.
(§6) After being treated with the compound of formula (2) prepared in Example 1, the protein expression levels of the MAPKs induced by UVB were inhibited in a concentration dependent way. Specifically, when the concentration of the compound of formula (2) was 10 μM, the expression level of P-ERK was 1.1 times as compared to that of the untreated cells. When the concentration of the compound of formula (2) was 5 μM, the expression levels of p-JNK and p-p38 were both 1.1 times as compared to that of the untreated cells.

[8] = test system: p-JNK; assay: as above; assay type: cell-based, human; settings: UVB 40 mJ/cm^2
Protocol: as §5, §6

[9] = test system: p-ERK; assay: as above; assay type: cell-based, human; settings: UVB 40 mJ/cm^2
Protocol: as §5, §6

[10] = test system: human fibroblast Hs68 cells; assay: Cellular toxicity evaluation, MTT assay; assay type: cell-based; settings: 24 hours
Protocol: MTT (3-(4,5-dimethylthiazol-2-yl)-2,5-diphenyl tetrazolium bromide) assay was used to determine the cellular toxicity of the caffeamide derivatives described herein. First, different concentrations (0 μM to 100 μM) of the compounds of formula (1) or formula (2) prepared in Example 1 of the present invention were added, respectively, into a 96-well microplate which containing human fibroblast Hs68 cells (1×10^4 cells per well). After the cells were incubated in an incubator at 37° C. and 5% CO2 for 24 hours, 15 μl of MTT solution (0.5 mg/ml; dissolved in PBS) was added into the microplate and the human fibroblast Hs68 cells were incubated for 3 hours. Next, 75 μl SDS (sodium dodecyl sulfate) solution (10% SDS was dissolved in 0.01N HCl) was added into the microplate. After the cells were maintained for 24 hours, the absorbances of each well were measured at a wavelength of 570 nm by an enzyme immunoassay analyzer. Finally, the cell survival rate was calculated by the following formula to observe the cellular toxicity of compounds. The results are shown in Table 5, FIG. 10a and FIG. 10b. Cell survival rate(%)=absorbance of the experimental group/absorbance of the control group.

[11] = test system: MMP-3; assay: MMP expression, western blot, UVB-irradiated Hs68 cells; assay type: cell-based, human; settings: 5 μM; UVB 40 mJ/cm^2; 48 hours
Protocol: (§7) Human fibroblast Hs68 cells (5×10^5) (the number of Bioresource Collection and Research Center (BCRC): 60038) were counted and incubated in a culture dish with a diameter of 10 cm (the culture dish components were adjusted by L-glutamine (4 mM) to have 1.5 g/L NaHCO3, 4.5 g/L glucose, and 90% Dulbecco's Modified Eagle's Medium with 10% fetal bovine serum (FBS)). The medium was removed until human fibroblast Hs68 cells grow to a confluence of 80%, and the cells were then washed once with 5 ml PBS (phosphate buffered saline). Then, 3 ml phenol red-free medium which contain different concentrations (0 μM to 25 μM) of the compounds of formula (1) or formula (2) prepared in Example 1 were added into the culture dish. After incubating for 1 hour, the cells were irradiated by UV light (UVB with an intensity of 40 mJ/cm^2) for 15 seconds. Next, the phenol red-free medium which contains different concentrations (0 μM to 25 μM) of the compounds of formula (1) or formula (2) prepared in Example 1 were added into the culture dish sequentially. After incubation in an incubator (37° C., 5% CO2) for 48 hours, the cells were collected.
(§8) The collected cells were treated with a sonication buffer (containing Na3VO4 (100 μM), phenylmethanesulfonyl fluoride (PMSFL, 100 mg/ml), leupeptin (20 mg/ml), Tris-HCl (pH 7.4, 50 μM), NaCl (37.5 μM), DL-dithiothretiol (250 μM), sodium deoxycholate (3 μM), EDTA (1 μM), SDS (0.1%), and Igepal™ CA-630 (Sigma-Aldrich, 1%)) and sonicated to rupture the cell membranes. Then, the organelles and fragments of the cells were precipitated by centrifugation, and the supernatant, which contains proteins in the cytosol was collected. Next, the obtained proteins were separated by SDS-PAGE, and transferred to a membrane by western blotting. Antibodies were used to recognize the targeted proteins, such as MMP-1, MMP-3, MMP-9, and actin. The images were recorded by a Luminescent imagination technology (LAS-4000, FUJIFILM), and the variation of the proteins expression levels were determined by a quantitative analysis software (multi Gauge 2.2, Steware Technology Inc.).

[12] = test system: MMP-1; assay: as above; assay type: cell-based, human; settings: 5 μM; UVB 40 mJ/cm^2; 48 hours
Protocol: as §7, §8

[13] = test system: human fibroblast Hs68 cells; assay: Scavenging test of ROS free radicals in UVB-irradiated cells; assay type: cell-based; settings: UVB 80 mJ/cm^2, 24 hours
Protocol: After incubated in an incubator (37° C., 5% CO2) for 24 hours, the ROS level was examined.

In the case of `O=C1O[C@H]([C@@H](O)CO)C(O)=C1O` [Ascorbic acid, ascorbic acid, reference compound], the “Scavenging efficiency (%)” value ([1]; 25 μM) is reported as 57.5 ± 1.4% and the “Scavenging efficiency (%)” value ([1]; 50 μM) is reported as 89.8 ± 0.9%.

With `O=C(C=Cc1ccc(O)c(O)c1)NCCc1ccccc1` [Compound of formula (1)] the “protein expression level of Smad7 as compared to that of the untreated cells” value ([2]; 5 μM) was 1.2 times, the “protein expression level of Smad7 as compared to that of the untreated cells” value ([2]; 10 μM) was 0.7 times and the “protein expression level of Smad7 as compared to that of the untreated cells” value ([2]; 25 μM) was 0.7 times. For the same molecule, the “effect on protein expression level of Smad3” value [3] was “not affected”, the “protein expression level of procollagen-1 decreased by UVB, reversed to” value [4] was 0.7 times and the “expression level of c-Fos as compared to that of the untreated cells” value [5] was 1.1 times. The “expression level of c-Jun as compared to that of the untreated cells” value ([6]; 10 μM) was 1.1 times, the “expression level of c-Jun as compared to that of the untreated cells” value ([6]; 25 μM) was 1.2 times and the “expression level of p-p38 as compared to that of the untreated cells” value ([7]; 10 μM) was 1.2 times. The “expression level of p-p38 as compared to that of the untreated cells” value ([7]; 25 μM) was 1.0 times, the “expression level of p-JNK as compared to that of the untreated cells” value ([8]; 10 μM) was 1.2 times and the “expression level of p-JNK as compared to that of the untreated cells” value ([8]; 25 μM) was 0.8 times. The “expression level of p-ERK as compared to that of the untreated cells” value ([9]; 10 μM) was 1.2 times, the “expression level of p-ERK as compared to that of the untreated cells” value ([9]; 25 μM) was 1.3 times and the “Cell survival rate (%)” value ([10]; 5 μM) was 99.9 ± 1.8%. The “Cell survival rate (%)” value ([10]; 10 μM) was 99.5 ± 4.6%, the “Cell survival rate (%)” value ([10]; 25 μM) was 104.2 ± 3.7% and the “Cell survival rate (%)” value ([10]; 50 μM) was 107.8 ± 1.2%. The “expression level of MMP-3 as compared to that of the untreated cells” value [11] was 1.0 times, the “expression level of MMP-1 as compared to that of the untreated cells” value [12] was 1.0 times and the EC50 ([1]; DPPH free radical scavenging, read-out: SC50 (the source's name)) was 22.1 ± 1.3 µM. The “Concentration of ROS (times compared to the untreated cells)” value ([13]; 5 μM) was 1.2 ± 0.13 times, the “Concentration of ROS (times compared to the untreated cells)” value ([13]; 10 μM) was 1.0 ± 0.21 times and the “Concentration of ROS (times compared to the untreated cells)” value ([13]; 25 μM) was 0.8 ± 0.07 times. For the same molecule, the “Concentration of ROS (times compared to the untreated cells)” value ([13]; 25 μM, listed as compound of formula (1)) was 0.8 times.
